Source: US20250188059A1, “NOVEL COMPOUND AND USE THEREOF FOR INHIBITING CHECKPOINT KINASE 2” (ARUM THERAPEUTICS INC, priority 2022, published 2025)
Like-named read-outs stand apart in the source and are kept apart here.

Assays:
Chk2 kinase = Chk2 kinase (Homo sapiens (Human), UniProt O96017); assay: Chk2 kinase inhibitory activity (LanthaScreen TR-FRET); format: biochemical; details: graded
Protocol: The compounds of Examples 1 to 66 were diluted at various concentrations and transferred to a 384-well plate by 5 μl, and 10 μl of a mixed solution (2×) of Chk1 kinase (Thermo, P3040) or Chk2 kinase (Thermo, PV3367) and a substrate (Thermo, PV3508) was added to wells treated with the compounds. 5 μl of an ATP solution at a 4× concentration was added to the test well and reacted at room temperature for 1 hour. 20 μl of LanthaScreen Terbium-CREB p-Ser 133 antibody (Thermo, PV3542) was added to the reaction well and incubated at room temperature for 30 minutes. Conversion data was measured by an EnVision 2014 multi label reader (PerkinElmer). The activity for each concentration was determined by the ratio (FRET ratio=FR) of the value obtained by dividing the value at 520 nm by the value at 490 nm among the emission wavelength values for each wavelength (Em520/Em490). The results obtained for each concentration of the compounds were the average values obtained in two wells, and the IC50 values of the compounds were calculated using PRIZM software for analysis of the results. IC50 in Table 7 was graded as follows.

[1] = test system: human breast cancer cell line MCF-7; assay: Cancer cell growth inhibition test (CellTiter-Glo); format: cell-based; details: MCF-7, 72 hours
Protocol: The human breast cancer cell line MCF-7 was treated with trypsin and harvested. The number of cells was counted, and about 3000 cells/80 μl per well were inoculated into a 96 well plate (Corning) and then incubated in a 37° C. incubator for 24 hours. Thereafter, the example compounds were diluted in a culture solution at various concentrations, and each well was treated with 20 μl and stored in a cell culture incubator for 72 hours. In the case of the group administered in combination, the example compounds and cisplatin or doxorubicin were diluted in a culture solution at various concentrations, and each well was treated with 20 μl. After 72 hours, each well was treated with 30 μl of CellTiter-Glo solution (Promega), and the luminescence was read on a Victor3 multi label reader (PerkinElmer).
Relative viability (%)=(value of each test well/value of well treated with DMSO alone)×100
The results obtained for each concentration for each example compound were the average values obtained from three wells, and PRIZM software was used for analysis of the results.

[2] = Homo sapiens, MCF7, 72 h, graded, read-out: Celltiter glo analysis (IC50)
[3] = Homo sapiens, MCF7, 72 h, alone, read-out: Administered alone (IC50)

Chain of Chk2 kinase (O96017 whole entry): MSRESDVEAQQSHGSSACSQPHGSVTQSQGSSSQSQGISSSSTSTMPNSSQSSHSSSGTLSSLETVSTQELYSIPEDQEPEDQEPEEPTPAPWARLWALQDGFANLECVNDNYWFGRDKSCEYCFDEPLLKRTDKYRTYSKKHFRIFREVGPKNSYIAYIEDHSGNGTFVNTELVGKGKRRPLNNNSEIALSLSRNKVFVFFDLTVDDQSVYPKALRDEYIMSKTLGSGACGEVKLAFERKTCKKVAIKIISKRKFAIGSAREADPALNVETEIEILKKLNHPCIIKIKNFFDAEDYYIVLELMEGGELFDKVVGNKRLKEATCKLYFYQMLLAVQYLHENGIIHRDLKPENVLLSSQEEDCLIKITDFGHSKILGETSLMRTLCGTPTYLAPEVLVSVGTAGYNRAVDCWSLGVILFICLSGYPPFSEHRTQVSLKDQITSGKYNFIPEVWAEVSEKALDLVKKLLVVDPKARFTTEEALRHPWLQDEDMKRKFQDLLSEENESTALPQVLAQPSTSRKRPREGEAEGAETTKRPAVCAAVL

Compound | IC50 (Chk2 kinase) | IC50 [1, 2] | other results
CC1(C)Cc2c(-c3cccc(-c4cnc(N)c(C(=O)N[C@@H]5CNCCOC5)n4)c3)cnn2C1 (stereo in doubt) [Example 61, 3-amino-6-(3-(5,5-dimethyl-5,6-dihydro-4H-pyrrolo[1,2-b]pyrazol-3-yl)phenyl)-N-(1,4-oxazepan-6-yl)pyrazine-2-carboxamide] | ≤ 10 nM | > 100 µM | 
Nc1ncc(-c2cc(-c3cnn(CC(F)(F)F)c3)ncc2F)nc1C(=O)N[C@H]1CCCNC1 [Example 1, (S)-3-amino-6-(5-fluoro-2-(1-(2,2,2-trifluoroethyl)-1H-pyrazol-4-yl)pyridin-4-yl)-N-(piperidin-3-yl) pyrazine-2-carboxamide] | 10 to 100 nM | 10 to 100 µM | 
Nc1ncc(-c2cc(-c3cnn(CC(F)(F)F)c3)ncc2F)nc1C(=O)N[C@@H]1CNCC[C@H]1O [Example 3, 3-amino-6-(5-fluoro-2-(1-(2,2,2-trifluoroethyl)-1H-pyrazol-4-yl)pyridin-4-yl)-N-((3R,4R)-4-hydroxypiperidin-3-yl)pyrazine-2-carboxamide] | ≤ 10 nM | 10 to 100 µM | 
CC(C)(O)Cn1cc(-c2cc(-c3cnc(N)c(C(=O)N[C@H]4CCCNC4)n3)ccn2)cn1 [Example 5, (S)-3-amino-6-(2-(1-(2-hydroxy-2-methylpropyl)-1H-pyrazol-4-yl)pyridin-4-yl)-N-(piperidin-3-yl) pyrazine-2-carboxamide] | ≤ 10 nM | > 100 µM | 
CC(C)(O)Cn1cc(-c2cc(-c3cnc(N)c(C(=O)NC4CNC[C@@H](F)C4)n3)ccn2)cn1 (stereo partly drawn) [Example 6, 3-amino-N-((3S,5S)-5-fluoropiperidin-3-yl)-6-(2-(1-(2-hydroxy-2-methylpropyl)-1H-pyrazol-4-yl)pyridin-4-yl)pyrazine-2-carboxamide] | ≤ 10 nM |  | IC50 ([1]; graded, read-out: Celltiter glo analysis (IC50)): 10 to 100 µM
CC(C)(O)Cn1cc(-c2cc(-c3cnc(N)c(C(=O)N[C@H]4CCC5(CC5)NC4)n3)ccn2)cn1 [Example 7, (S)-3-amino-6-(2-(1-(2-hydroxy-2-methylpropyl)-1H-pyrazol-4-yl)pyridin-4-yl)-N-(4-azaspiro[2.5]octan-6-yl)pyrazine-2-carboxamide] | ≤ 10 nM | 10 to 100 µM | 
Nc1ncc(-c2cc(-c3cnn(CC(F)(F)F)c3)ccc2F)nc1C(=O)N[C@H]1CCC2(CC2)NC1 [Example 8, (S)-3-amino-6-(2-fluoro-5-(1-(2,2,2-trifluoroethyl)-1H-pyrazol-4-yl)phenyl)-N-(4-azaspiro[2.5]octan-6-yl)pyrazine-2-carboxamide] | 10 to 100 nM | 10 to 100 µM | 
Nc1ncc(-c2cc(-c3cnn(CC(F)(F)F)c3)ccc2F)nc1C(=O)N[C@@H]1CNCC[C@H]1O [Example 10, 3-amino-6-(2-fluoro-5-(1-(2,2,2-trifluoroethyl)-1H-pyrazol-4-yl)phenyl)-N-((3R,4R)-4-hydroxypiperidin-3-yl) pyrazine-2-carboxamide] | 10 to 100 nM | 10 to 100 µM | 
Nc1ncc(-c2cc(-c3cnn(CC(F)(F)F)c3)ccc2F)nc1C(=O)N[C@@H]1CNC[C@H]1O [Example 11, 3-amino-6-(2-fluoro-5-(1-(2,2,2-trifluoroethyl)-1H-pyrazol-4-yl)phenyl)-N-((3R,4R)-4-hydroxypyrrolidin-3-yl) pyrazine-2-carboxamide] | 10 to 100 nM | 10 to 100 µM | 
Nc1ncc(-c2cc(-c3cnn(CC(F)(F)F)c3)ccc2F)nc1C(=O)N[C@@H]1CNCC(F)(F)C1 [Example 12, (S)-3-amino-N-(5,5-difluoropiperidin-3-yl)-6-(2-fluoro-5-(1-(2,2,2-trifluoroethyl)-1H-pyrazol-4-yl)phenyl)pyrazine-2-carboxamide] | > 1000 nM | ≤ 10 µM | 
Nc1ncc(-c2ccnc(-c3cnn(CC(F)(F)F)c3)c2)nc1C(=O)N[C@@H]1CNCC(F)(F)C1 [Example 13, (S)-3-amino-N-(5,5-difluoropiperidin-3-yl)-6-(2-(1-(2,2,2-trifluoroethyl)-1H-pyrazol-4-yl)pyridin-4-yl)pyrazine-2-carboxamide] | 100 to 1000 nM | ≤ 10 µM | IC50 [1, 3]: 8.59 µM; IC50 ([1]; combination with cisplatin, read-out: Administered in combination with cisplatin (IC50)): 2.93 µM; IC50 ([1]; combination with doxorubicin, read-out: Administered in combination with doxorubicin (IC50)): 0.91 µM
CC(C)(O)Cn1cc(-c2cc(-c3cnc(N)c(C(=O)N[C@@H]4CNC[C@@H](F)C4)n3)c(F)cn2)cn1 [Example 22, 3-amino-6-(5-fluoro-2-(1-(2-hydroxy-2-methylpropyl)-1H-pyrazol-4-yl)pyridin-4-yl)-N-((3S,5S)-5-fluoropiperidin-3-yl)pyrazine-2-carboxamide] | > 1000 nM | 10 to 100 µM | 
Nc1ncc(-c2cc(-c3cnn(CC(F)(F)F)c3)ccc2O)nc1C(=O)N[C@@H]1CNC[C@@H](F)C1 [Example 23, 3-amino-N-((3S,5S)-5-fluoropiperidin-3-yl)-6-(2-hydroxy-5-(1-(2,2,2-trifluoroethyl)-1H-pyrazol-4-yl)phenyl)pyrazine-2-carboxamide] | ≤ 10 nM | 10 to 100 µM | 
Nc1ncc(-c2cc(-c3cnn(CC(F)(F)F)c3)ccc2O)nc1C(=O)N[C@H]1CCCNC1 [Example 24, (S)-3-amino-6-(2-hydroxy-5-(1-(2,2,2-trifluoroethyl)-1H-pyrazol-4-yl)phenyl)-N-(piperidin-3-yl) pyrazine-2-carboxamide] | ≤ 10 nM | 10 to 100 µM | 
CC(C)(O)Cn1cc(-c2cc(-c3cnc(N)c(C(=O)NC4CNC[C@@H](F)C4)n3)ccn2)cn1 (stereo partly drawn) [Example 34, 3-amino-N-((3S,5S)-5-fluoropiperidin-3-yl)-6-(2-(1-(2-hydroxy-2-methylpropyl)-1H-pyrazol-4-yl)pyridin-4-yl)pyrazine-2-carboxamide] |  | 10 to 100 µM | 
CC1(C)Cc2c(-c3ccc(F)c(-c4cnc(N)c(C(=O)N[C@@H]5CNCC[C@H]5O)n4)c3)cnn2C1 [Example 47, 3-amino-6-(5-(5,5-dimethyl-5,6-dihydro-4H-pyrrolo[1,2-b]pyrazol-3-yl)-2-fluorophenyl)-N-((3R,4R)-4-hydroxypiperidine-3-yl) pyrazine-2-carboxamide] | 10 to 100 nM | 10 to 100 µM | 
CC1(C)Cc2c(-c3cc(-c4cnc(N)c(C(=O)N[C@@H]5CNC[C@@H](F)C5)n4)ccn3)cnn2C1 [Example 48, 3-amino-6-(2-(5,5-dimethyl-5,6-dihydro-4H-pyrrolo[1,2-b]pyrazol-3-yl)pyridin-4-yl)-N-((3S,5S)-5-fluoropiperidin-3-yl)pyrazine-2-carboxamide] | ≤ 10 nM | 10 to 100 µM | 
CC1(C)Cc2c(-c3cc(-c4cnc(N)c(C(=O)N[C@H]5CCCNC5)n4)ccn3)cnn2C1 [Example 49, (S)-3-amino-6-(2-(5,5-dimethyl-5,6-dihydro-4H-pyrrolo[1,2-b]pyrazol-3-yl)pyridin-4-yl)-N-(piperidin-3-yl)pyrazine-2-carboxamide] | ≤ 10 nM | 10 to 100 µM | 
CC1(C)Cc2c(-c3cc(-c4cnc(N)c(C(=O)N[C@H]5CCC6(CC6)NC5)n4)ccn3)cnn2C1 [Example 50, (S)-3-amino-6-(2-(5,5-dimethyl-5,6-dihydro-4H-pyrrolo[1,2-b]pyrazol-3-yl)pyridin-4-yl)-N-(4-azaspiro[2.5]octan-6-yl)pyrazine-2-carboxamide] | ≤ 10 nM | 10 to 100 µM | 
N.N.[Cl][Pt][Cl] [cisplatin, reference compound] |  |  | IC50 ([1]; alone, read-out: Administered alone (IC50)): 26 µM
COc1cccc2c1C(=O)c1c(O)c3c(c(O)c1C2=O)C[C@@](O)(C(=O)CO)C[C@@H]3O[C@H]1C[C@H](N)[C@H](O)[C@H](C)O1 [doxorubicin, reference compound] |  |  | IC50 [1, 3]: 1.5 µM
